The experiment has as its target T1, VDRRXRα heterodimer (Homo sapiens, UniProt P11473, DEL151-190).
T1 construct: Full-length WT His-hVDR (Δ (151–190)) and WT Flag-h RXRα were expressed in a baculovirus system; His; made in house; host or cells: baculovirus system (VDR, RXRα); Escherichia coli BL21 DE3 (SRC1 RID)
T1 sequence (P11473 with tags, fused parts or gaps DEL151-190): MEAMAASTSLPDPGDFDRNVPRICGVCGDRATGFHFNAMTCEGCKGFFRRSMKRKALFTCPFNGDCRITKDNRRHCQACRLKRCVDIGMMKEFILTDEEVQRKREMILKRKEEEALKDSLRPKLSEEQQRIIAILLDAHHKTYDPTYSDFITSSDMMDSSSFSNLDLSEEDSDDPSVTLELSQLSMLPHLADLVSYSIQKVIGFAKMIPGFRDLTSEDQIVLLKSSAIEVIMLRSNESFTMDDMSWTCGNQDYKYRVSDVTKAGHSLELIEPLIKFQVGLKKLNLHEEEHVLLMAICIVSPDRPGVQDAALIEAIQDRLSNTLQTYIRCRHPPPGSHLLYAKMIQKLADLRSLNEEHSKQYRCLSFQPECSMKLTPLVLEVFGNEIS
T1 sequence (P19793 1-462 partner): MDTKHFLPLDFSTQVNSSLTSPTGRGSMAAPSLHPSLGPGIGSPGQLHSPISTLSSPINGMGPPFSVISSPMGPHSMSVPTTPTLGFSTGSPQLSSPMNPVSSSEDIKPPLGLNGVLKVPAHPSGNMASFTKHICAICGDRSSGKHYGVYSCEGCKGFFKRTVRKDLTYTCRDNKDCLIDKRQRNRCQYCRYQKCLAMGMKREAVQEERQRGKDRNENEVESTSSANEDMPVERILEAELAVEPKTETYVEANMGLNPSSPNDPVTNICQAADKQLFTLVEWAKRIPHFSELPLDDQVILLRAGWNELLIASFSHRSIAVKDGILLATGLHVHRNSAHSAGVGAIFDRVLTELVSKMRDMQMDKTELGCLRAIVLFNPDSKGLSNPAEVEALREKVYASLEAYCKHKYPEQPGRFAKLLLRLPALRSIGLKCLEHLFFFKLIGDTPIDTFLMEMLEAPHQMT
T1 sequence (Q15788 627-786 partner limits assumed): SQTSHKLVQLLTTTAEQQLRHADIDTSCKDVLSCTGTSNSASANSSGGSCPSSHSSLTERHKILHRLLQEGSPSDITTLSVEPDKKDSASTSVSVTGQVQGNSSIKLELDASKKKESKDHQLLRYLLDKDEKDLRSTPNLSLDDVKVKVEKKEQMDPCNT
Kind of experiment: Differential HDX-MS of liganded full-length VDRRXRα heterodimer with DNA VBS and SRC1 RID. To be noted: for decrease in solvent exchange within H12 of VDR upon SRC1 RID binding: ligand-heterodimer-DR3 or -DR3 half-site complex (both alike), aa412−419 for Cmpd1; for ΔΔHDX in the VDR hinge region (aa97−108): ΔHDX heterodimer:agonist ± DR3 minus ΔHDX heterodimer:agonist ± DR3 half-site. Type of experiment: binding. The procedure:
The final protein buffer was 50 mM Tris (pH 8.0), 150 mM NaCl, 10% glycerol and 2 mM DTT.
The DR3 VBS 5′-[…]-3′, DR3 half-site VBS 5′-[…]-3′, BGLAP VBS 5′-[…]-3′, BGLAP* VBS 5′-[…]-3′ and TRPV6 VBS 5′-[…]-3′ duplex oligonucleotides were purchased from Integrated DNA Technologies. […] SRC1 RID was added in a 2× molar ratio to heterodimer, and oligonucleotide (VBS) was mixed with the protein complex as needed (1.5× molar ratio). […]
Solution-phase amide HDX experiments were carried out with a fully automated system (CTC HTS PAL, LEAP Technologies, Carrboro, NC; housed inside a 4 °C cabinet) as follows.
HDX-MS analysis: 10 μM of the apo protein was mixed with 1:10 molar excess of ligand and incubated for 2 h at 4 °C for complex formation before subjecting them to HDX analysis. For the differential HDX experiments, 5 μl of either the apo or the liganded protein complex with DNA and SRC1 RID were mixed with 20 μl of D2O-containing HDX buffer (50 mM Tris, pH 8.0, 150 mM NaCl, and 2 mM DTT) and incubated at 4 °C for 0 s, 10 s, 30 s, 60 s, 300 s, 900 s, or 3,600 s. Following on-exchange, unwanted forward-exchange or back-exchange was minimized and the protein was denatured by the addition of 25 μl of a quench solution (1% v/v TFA in 3 M urea and 50 mM TCEP). Samples were then immediately passed through an immobilized pepsin column (prepared in house) at 50 μl min-1 (0.1% v/v TFA, 15 °C) and the resulting peptides were trapped and desalted on a 1.0 mm × 10 mm C8 trap column (Hypersil Gold, Thermo Fisher, Grand Island, NY). The bound peptides were then gradient-eluted (5–50% CH3CN v/v and 0.3% v/v formic acid) across a 1.0 mm × 50 mm C18 separation column (Hypersil Gold, Thermo Fisher, Grand Island, NY) for 6 min. Sample handling and peptide separation were conducted at 4 °C. The eluted peptides were then subjected to electrospray ionization directly coupled to a high resolution Orbitrap mass spectrometer (LTQ Orbitrap XL with ETD, Q Exactive, or Exactive, Thermo Fisher Scientific, San Jose, CA). Each HDX experiment was carried out in triplicate with a single preparation of each protein-ligand complex. The intensity weighted mean m/z centroid value of each peptide envelope was calculated and subsequently converted into a percentage of deuterium incorporation. This is accomplished by determining the observed averages of the undeuterated and fully deuterated spectra using the conventional formula described elsewhere. […] Statistical significance for the differential HDX data is determined by an unpaired t-test for each time point, a procedure that is integrated into the HDX Workbench software.
Data Statistics: Deuterium uptake for each peptide is calculated as the average of % D for all on-exchange time points and the difference in average %D values between the apo and ligand bound samples is presented as a heat map with a color code given at the bottom of the figure (warm colors for deprotection and cool colors for protection). […] Peptides with non-significant changes between the two states are colored gray. The exchange at the first two residues for any given peptide is not colored.

Where [1] appears, read: both ligand-heterodimer-VBS complexes (DR3, DR3 half-site).

The results in this text go back to paper PMC5640644, “HDX reveals the conformational dynamics of DNA sequence specific VDR co-activator interactions” (Nature Communications, 2017).

In the case of `CCc1cc(C(CC)(CC)c2ccc(OCC(O)C(C)(C)C)c(C)c2)sc1C(=O)N[C@@H](C)C(=O)O` (single isomer, unassigned) [Cmpd2, L-2-[(5-{1-Ethyl-1-[4-(2-hydroxy-3,3-dimethyl-butoxy)-3-methyl-phenyl]-propyl}-3-ethyl-thiophene-2-carbonyl)-amino]-propionic acid], the “decrease in solvent exchange within H12 of VDR upon SRC1 RID binding” value is ~ 20% and the “ΔΔHDX in the VDR hinge region (aa97−108)” value is on record as 19%. Further, under setting [1], the “decreased exchange for H1 of VDR upon SRC1 RID interaction” value was ~ 6% and the “decreased exchange for H3 of VDR upon SRC1 RID interaction” value is ~ 9%.

Take `CCC(CC)(c1ccc(OCC(O)C(C)(C)C)c(C)c1)c1ccc(C(=O)N(C)CC(=O)O)c(C)c1` (stereo not drawn) [Cmpd1, [(4-{1-ethyl-1-[4-(2-hydroxy-3,3-dimethyl-butoxy)-3-methyl-phenyl]-propyl}-2-methyl-benzoyl)-methyl-amino]-acetic acid]: the “decrease in solvent exchange within H12 of VDR upon SRC1 RID binding” value is on record as ~ 11% and the “ΔΔHDX in the VDR hinge region (aa97−108)” value was found to be 21%.

For `CCC(CC)(c1ccc(OCC(O)C(C)(C)C)c(C)c1)c1cc(C)c(C(=O)Nc2nnn[nH]2)s1` (stereo not drawn) [Cmpd3, 3'-[4-(2-hydroxy-3,3-dimethylbutoxy)-3-methylphenyl]-3'-[5-(tetrazol-5-yl-aminocarbonyl)-4-methylthiophen-2-yl]pentane], under “ligand-bound heterodimer, not observed upon binding the BGLAP VBS”, the “further reduction in deuterium exchange of VDR AF2 H12 upon binding of TRPV6 VBS” value is on record as ~ 13%. The “protection to solvent exchange at VDR AF2 surface upon SRC1 RID interaction” value (ligand-heterodimer-BGLAP VBS complex) is recorded as ~ 20% and the “protection to solvent exchange at VDR AF2 surface upon SRC1 RID interaction” value (ligand-heterodimer-TRPV6 VBS complex) is listed as ~ 9%.
